# Data as given in patent EP0399834B1, “1,2,4-Triazole derivatives, their preparation and their use for treating hypertension or respiratory tract disorders” (Beecham Group p.l.c., priority 1989, dated 1990).
# Tested on: Spontaneously hypertensive rats
# Test: Antihypertensive activity: systolic blood pressure by tail cuff method
# Format: in vivo
# Conditions: maximum at 1-4 hours post dose
# Description: Systolic blood pressures were recorded by a modification of the tail cuff method described by I.M. Claxton, M.G. Palfreyman, R.H. Poyser, R.L. Whiting, European Journal of Pharmacology, 37, 179 (1976). A W+W BP recorder, model 8005 was used to display pulses. Prior to all measurements rats were placed in a heated environment (33.5 ± 0.5 °C) before transfer to a restraining cage. Each determination of blood pressure was the mean of at least 6 readings. Spontaneously hypertensive rats (ages 12-18 weeks) with systolic blood pressures >180 mmHg were considered hypertensive.
compound,measurement,setting,value
"Cn1nc(N)nc1N[C@@H]1c2cc(C#N)ccc2OC(C)(C)[C@H]1O (relative stereo) [Example E1, N⁵-[trans-4-(6-Cyano-2,3-dihydro-2,2-dimethyl-2H-benzopyran-3-ol)]-1-methyl-1H-1,2,4-triazole-3,5-diamine]",% b.p. fall,Dose 0.1 mg/kg,30%
"Cn1nc(N)nc1N[C@@H]1c2cc(C#N)ccc2OC(C)(C)[C@H]1O (relative stereo) [Example E7, (3S,4R)-N⁵-[trans-4-(6-cyano-3,4-dihydro-2,2-dimethyl-2H-1-benzopyran-3-ol)]-1-methyl-1H-1,2,4-triazole-3,5-diamine]",% b.p. fall,Dose 0.05 mg/kg,45%
"Cn1ncnc1N[C@@H]1c2cc(C#N)ccc2OC(C)(C)[C@H]1O (relative stereo) [Example E2, trans-N⁵-4-[6-cyano-3,4-dihydro-2,2-dimethyl-2H-benzopyran-3-ol]amino-1-methyl-1H-1,2,4-triazole]",% b.p. fall,Dose 0.3 mg/kg,22%
"Cc1nc(N[C@@H]2c3cc(C#N)ccc3OC(C)(C)[C@H]2O)n(C)n1 (relative stereo) [Example E4, trans-N⁵-4-[6-Cyano-3,4-dihydro-2,2-dimethyl-2H-benzopyran-3-ol]amino-1,3-dimethyl-1H-1,2,4-triazole]",% b.p. fall,Dose 1.0 mg/kg,22%
